Experimental data: ChEMBL document CHEMBL1201862, “PubChem BioAssay data set” (2004)
Active and inactive are the calls of the source.

Experiments:
[1] = target: Cytochrome P450 2C9 (Homo sapiens, UniProt P11712); conditions: Potency
[2] = target: Cytochrome P450 3A4 (Homo sapiens, UniProt P08684); conditions: Potency;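 further: confirmatory qHTS run detecting inhibitors and substrates of CYP3A4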
[3] = target: Peroxisome proliferator-activated receptor gamma/Nuclear receptor coactivator 2 (Homo sapiens, UniProt P37231); format: functional;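 further: agonist potency for raising coactivator recruitment to the receptor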
[4] = target: Peroxisome proliferator-activated receptor gamma/Nuclear receptor coactivator 3 (Homo sapiens, UniProt P37231); format: functional;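 further: agonist potency for raising coactivator recruitment to the receptor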
Peroxisome proliferator-activated receptor gamma/Nuclear receptor coactivator 3, sequence (P37231 whole entry): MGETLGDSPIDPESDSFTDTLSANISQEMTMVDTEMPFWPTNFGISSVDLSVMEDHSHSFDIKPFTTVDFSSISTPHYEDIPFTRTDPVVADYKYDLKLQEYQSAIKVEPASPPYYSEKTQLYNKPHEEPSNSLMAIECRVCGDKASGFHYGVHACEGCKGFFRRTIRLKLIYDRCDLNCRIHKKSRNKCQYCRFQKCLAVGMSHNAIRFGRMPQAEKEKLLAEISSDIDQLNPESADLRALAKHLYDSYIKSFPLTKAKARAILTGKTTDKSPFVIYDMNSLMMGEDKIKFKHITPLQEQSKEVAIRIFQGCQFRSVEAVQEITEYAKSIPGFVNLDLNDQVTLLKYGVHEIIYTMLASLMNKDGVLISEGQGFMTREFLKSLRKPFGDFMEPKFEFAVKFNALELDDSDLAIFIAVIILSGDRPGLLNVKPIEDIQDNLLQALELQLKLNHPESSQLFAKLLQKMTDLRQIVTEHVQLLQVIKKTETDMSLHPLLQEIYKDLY
Peroxisome proliferator-activated receptor gamma/Nuclear receptor coactivator 3, sequence (Q9Y6Q9 whole entry, further chain): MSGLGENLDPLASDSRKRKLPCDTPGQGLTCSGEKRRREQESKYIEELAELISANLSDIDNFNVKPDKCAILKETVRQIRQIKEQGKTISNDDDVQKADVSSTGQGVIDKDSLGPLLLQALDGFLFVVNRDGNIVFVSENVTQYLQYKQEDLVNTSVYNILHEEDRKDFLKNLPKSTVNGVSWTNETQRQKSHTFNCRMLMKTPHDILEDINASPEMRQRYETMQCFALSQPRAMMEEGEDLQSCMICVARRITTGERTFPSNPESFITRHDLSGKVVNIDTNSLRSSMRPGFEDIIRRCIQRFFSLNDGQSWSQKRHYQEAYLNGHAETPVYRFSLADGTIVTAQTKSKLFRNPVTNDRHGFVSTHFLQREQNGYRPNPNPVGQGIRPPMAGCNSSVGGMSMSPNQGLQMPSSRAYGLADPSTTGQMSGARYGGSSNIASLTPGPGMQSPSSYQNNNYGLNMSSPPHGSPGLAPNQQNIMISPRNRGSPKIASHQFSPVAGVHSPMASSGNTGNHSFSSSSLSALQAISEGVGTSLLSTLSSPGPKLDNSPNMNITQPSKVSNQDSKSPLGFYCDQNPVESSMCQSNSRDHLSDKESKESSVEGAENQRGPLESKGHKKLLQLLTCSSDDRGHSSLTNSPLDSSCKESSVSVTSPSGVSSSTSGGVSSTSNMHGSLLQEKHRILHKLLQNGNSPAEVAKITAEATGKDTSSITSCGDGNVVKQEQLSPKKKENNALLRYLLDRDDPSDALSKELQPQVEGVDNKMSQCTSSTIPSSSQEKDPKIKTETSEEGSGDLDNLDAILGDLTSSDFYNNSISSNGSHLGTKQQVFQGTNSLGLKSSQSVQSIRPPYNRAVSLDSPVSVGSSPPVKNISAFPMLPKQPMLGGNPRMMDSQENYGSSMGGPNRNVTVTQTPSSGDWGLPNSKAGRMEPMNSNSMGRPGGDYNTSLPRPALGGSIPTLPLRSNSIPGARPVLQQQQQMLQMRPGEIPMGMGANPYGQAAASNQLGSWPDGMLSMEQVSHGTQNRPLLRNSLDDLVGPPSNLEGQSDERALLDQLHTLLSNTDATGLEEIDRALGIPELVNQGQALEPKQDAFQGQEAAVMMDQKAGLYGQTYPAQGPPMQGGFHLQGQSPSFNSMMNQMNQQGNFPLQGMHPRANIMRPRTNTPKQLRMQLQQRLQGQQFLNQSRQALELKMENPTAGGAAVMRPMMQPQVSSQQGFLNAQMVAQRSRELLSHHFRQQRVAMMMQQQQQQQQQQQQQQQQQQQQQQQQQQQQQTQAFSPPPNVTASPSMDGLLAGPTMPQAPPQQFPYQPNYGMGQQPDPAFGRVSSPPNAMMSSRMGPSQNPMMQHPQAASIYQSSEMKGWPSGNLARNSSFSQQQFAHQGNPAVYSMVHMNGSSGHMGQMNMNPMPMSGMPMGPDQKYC

[5] = target: Peroxisome proliferator-activated receptor gamma/Nuclear receptor coactivator 1 (Homo sapiens, UniProt P37231); format: functional;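 further: agonist potency as compounds enhance coactivator SRC-1 recruitment to PPARgamma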
Peroxisome proliferator-activated receptor gamma/Nuclear receptor coactivator 1, sequence (P37231 whole entry): as the sequence (P37231 whole entry) above
Peroxisome proliferator-activated receptor gamma/Nuclear receptor coactivator 1, sequence (Q15788 whole entry, further chain): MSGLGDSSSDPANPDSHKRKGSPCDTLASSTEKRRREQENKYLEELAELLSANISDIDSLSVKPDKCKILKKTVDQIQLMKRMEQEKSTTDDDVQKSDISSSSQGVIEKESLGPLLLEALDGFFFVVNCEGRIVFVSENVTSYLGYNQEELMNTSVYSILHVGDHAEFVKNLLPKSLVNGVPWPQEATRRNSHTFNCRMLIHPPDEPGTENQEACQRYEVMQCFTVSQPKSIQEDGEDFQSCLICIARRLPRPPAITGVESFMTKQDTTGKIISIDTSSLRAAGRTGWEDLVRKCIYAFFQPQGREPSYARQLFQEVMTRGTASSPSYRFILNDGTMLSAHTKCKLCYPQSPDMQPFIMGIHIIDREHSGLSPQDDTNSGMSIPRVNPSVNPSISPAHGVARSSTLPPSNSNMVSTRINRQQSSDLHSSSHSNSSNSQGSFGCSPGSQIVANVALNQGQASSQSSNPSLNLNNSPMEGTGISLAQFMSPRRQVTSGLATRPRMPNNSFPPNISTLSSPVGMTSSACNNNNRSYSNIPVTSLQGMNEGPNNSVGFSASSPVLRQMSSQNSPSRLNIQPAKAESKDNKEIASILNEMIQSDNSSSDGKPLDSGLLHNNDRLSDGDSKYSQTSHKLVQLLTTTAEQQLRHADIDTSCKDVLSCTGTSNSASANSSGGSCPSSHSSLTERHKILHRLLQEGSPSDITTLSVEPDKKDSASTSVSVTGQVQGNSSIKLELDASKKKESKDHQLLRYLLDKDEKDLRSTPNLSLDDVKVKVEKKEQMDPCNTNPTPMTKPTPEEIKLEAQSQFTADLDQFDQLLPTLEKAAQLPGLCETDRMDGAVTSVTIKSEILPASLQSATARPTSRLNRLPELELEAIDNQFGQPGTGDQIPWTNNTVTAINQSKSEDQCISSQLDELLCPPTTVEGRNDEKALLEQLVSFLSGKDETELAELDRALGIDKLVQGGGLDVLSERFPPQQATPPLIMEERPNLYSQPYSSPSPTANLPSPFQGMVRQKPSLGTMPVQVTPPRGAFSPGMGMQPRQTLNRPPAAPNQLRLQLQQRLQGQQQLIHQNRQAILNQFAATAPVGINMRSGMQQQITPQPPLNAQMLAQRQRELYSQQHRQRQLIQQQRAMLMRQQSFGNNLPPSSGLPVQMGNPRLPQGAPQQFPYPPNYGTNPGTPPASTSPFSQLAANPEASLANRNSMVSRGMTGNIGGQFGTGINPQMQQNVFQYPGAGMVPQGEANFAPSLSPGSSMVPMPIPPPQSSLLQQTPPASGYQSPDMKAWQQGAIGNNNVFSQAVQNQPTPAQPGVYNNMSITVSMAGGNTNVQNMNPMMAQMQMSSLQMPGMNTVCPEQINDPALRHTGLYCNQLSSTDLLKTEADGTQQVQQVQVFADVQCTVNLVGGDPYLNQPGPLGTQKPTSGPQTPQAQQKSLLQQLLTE

[6] = target: Cytochrome P450 2D6 (Homo sapiens, UniProt P10635);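 further: CYP2D6 member of a cytochrome P450 panel assay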
[7] = target: Paired box protein Pax-8 (Homo sapiens, UniProt Q06710); experiment: PAX8 transcriptional activity inhibition in RMG-I – RMG-I cells, luciferase, cherry-pick, dose response (AID 687027); format: functional, cell-based;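 further: luciferase reporter driven by Pax8 target thyroperoxidase promoter measured by SteadyGlo luminescence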
[8] = IGROV1 cell killing – plate reader, dry powder samples, PAX8 inhibitor project, dose response (AID 743043); format: functional, cell-based; conditions: IGROV-1
[9] = OVCAR-3 cell viability loss – plate reader, dry powder samples, PAX8 inhibitor project, dose response (AID 743044); format: functional, cell-based
[10] = OVCAR8 cell viability loss – plate reader, dry powder samples, PAX8 project, dose response (AID 743197); format: functional, cell-based; conditions: OVCAR-8
[11] = general cell-killing toxicity readout – plate reader, dry powder samples, cytotoxicity control for PAX8 inhibitor project, dose response (AID 743021); format: functional, cell-based
[12] = Counterscreen for activators of the function of SWI/SNF related, matrix associated, actin dependent regulator of chromatin, subfamily a, member 2 (SMARCA2, BRM): Luminescence-based cell-based high throughput dose response assay to identify non-selective compounds using the VP16 reporter assay.; format: functional
[13] = fluconazole-exposed Candida albicans growth modulators – fluorescence, retest, confirmation (AID 2467); format: functional, cell-based
[14] = target: SWI/SNF-related matrix-associated actin-dependent regulator of chromatin subfamily A member 2 (Homo sapiens, UniProt P51531); experiment: Luminescence-based cell-based high throughput dose response assay to identify activators of the function of SWI/SNF related, matrix associated, actin dependent regulator of chromatin, subfamily a, member 2 (SMARCA2, BRM).; format: functional
[15] = target: ATP-dependent molecular chaperone HSP82 (Candida albicans (strain WO-1) (Yeast), UniProt C4YTQ8); experiment: steroid-induced GRE reporter decrease in yeast – S. cerevisiae, luminescence, Hsp90 inhibitor project, dose response (AID 2400); format: functional, cell-based;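 further: beta-galactosidase luminescence from glucocorticoid response element reporter as proxy for Hsp90 function; inhibitor potency where signal loss means Hsp90 inhibition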
[16] = target: T1, Serine/threonine-protein phosphatase (Candida dubliniensis (strain CD36 / CBS 7987 / NCPF 3949 / NRRLY-17841) (Yeast), UniProt B9W6M3); experiment: blockers of CaCl2-induced CDRE-lacZ signaling – S. cerevisiae, luminescence, secondary, dose response (AID 2388); format: functional, cell-based;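 further: yeast reporter cells carrying a calcineurin-responsive lacZ construct stimulated with calcium chloride; luminescent beta-galactosidase reporter signal in whole cells rather than isolated phosphatase activity; potency for inhibition where a drop in reporter signal means calcineurin blockade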
T1 sequence (B9W6M3 whole entry): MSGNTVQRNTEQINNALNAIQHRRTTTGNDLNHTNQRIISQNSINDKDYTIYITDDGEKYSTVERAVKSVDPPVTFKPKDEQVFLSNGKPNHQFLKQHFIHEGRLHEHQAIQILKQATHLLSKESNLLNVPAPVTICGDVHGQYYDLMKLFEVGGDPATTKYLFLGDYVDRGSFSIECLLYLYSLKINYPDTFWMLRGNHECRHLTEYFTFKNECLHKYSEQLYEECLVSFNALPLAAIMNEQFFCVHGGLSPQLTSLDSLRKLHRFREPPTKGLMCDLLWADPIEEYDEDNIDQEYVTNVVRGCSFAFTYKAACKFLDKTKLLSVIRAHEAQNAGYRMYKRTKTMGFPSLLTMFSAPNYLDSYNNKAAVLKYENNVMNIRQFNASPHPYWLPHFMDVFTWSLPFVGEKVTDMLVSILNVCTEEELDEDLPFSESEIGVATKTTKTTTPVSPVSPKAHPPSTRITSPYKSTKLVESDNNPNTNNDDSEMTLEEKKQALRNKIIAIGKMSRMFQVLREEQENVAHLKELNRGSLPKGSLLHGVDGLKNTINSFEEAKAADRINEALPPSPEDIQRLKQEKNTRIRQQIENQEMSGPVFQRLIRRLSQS

[17] = NIH-3T3 fibroblast cytotoxicity, dose response, cytotoxicity control, cell-based, fluorescence, Alamar Blue, secondary assay (AID 2327); format: functional;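 further: NIH-3T3 mouse fibroblasts cultured with fluconazole at 8 µg/mL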
[18] = target: T2, Polyadenylate-binding protein 1 (Homo sapiens, UniProt P11940); experiment: MLLE binding blockers, Cy5 peptide tracer – biochemical, fluorescence polarization, Cy5-PAM2 peptide, secondary, miRNA deadenylation inhibitor project, dose response (AID 602260); format: functional; conditions: read-out: IC50_Mean
T2 sequence (P11940 whole entry, the tested form may be a part): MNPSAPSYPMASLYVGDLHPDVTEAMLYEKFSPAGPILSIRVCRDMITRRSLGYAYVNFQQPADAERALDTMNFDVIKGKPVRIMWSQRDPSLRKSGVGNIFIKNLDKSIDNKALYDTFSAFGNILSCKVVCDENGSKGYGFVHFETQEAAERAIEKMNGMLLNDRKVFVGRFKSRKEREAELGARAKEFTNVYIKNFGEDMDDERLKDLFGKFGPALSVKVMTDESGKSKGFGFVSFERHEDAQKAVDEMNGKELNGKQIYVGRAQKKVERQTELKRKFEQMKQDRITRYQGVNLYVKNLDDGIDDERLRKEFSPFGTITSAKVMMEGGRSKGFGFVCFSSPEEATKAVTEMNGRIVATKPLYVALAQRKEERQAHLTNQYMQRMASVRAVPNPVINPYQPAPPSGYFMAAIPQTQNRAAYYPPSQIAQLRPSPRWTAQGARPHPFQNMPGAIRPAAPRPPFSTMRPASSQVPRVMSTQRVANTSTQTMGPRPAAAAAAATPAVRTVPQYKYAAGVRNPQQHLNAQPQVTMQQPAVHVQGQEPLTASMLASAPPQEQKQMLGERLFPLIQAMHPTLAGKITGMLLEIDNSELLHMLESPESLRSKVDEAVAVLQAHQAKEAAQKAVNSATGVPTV

[19] = target: T2, Polyadenylate-binding protein 1; experiment: MLLE domain peptide-binding blockers, IC50 – biochemical, fluorescence polarization, FITC-PAM2 peptide, dose response (AID 602259); format: functional; conditions: read-out: IC50_Mean
[20] = target: Disintegrin and metalloproteinase domain-containing protein 17 (Homo sapiens, UniProt P78536); experiment: exosite inhibitors of ADAM17, dose response, biochemical (AID 743260)
[21] = DRD fibroblast viability loss – cell-based, non-viral oncogenic, luminescence, dose response (AID 1934); format: functional; conditions: Homo sapiens
[22] = target: T3, Oxysterols receptor LXR-beta (Homo sapiens, UniProt P55055); format: functional, cell-based;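 further: agonist activity at LXR measured by a cell-based luminescence readout across a dose range, run as a counterscreen for daf-12 agonists; HEK293 cells with Gal4-LXR fusion and GAL4-driven luciferase reporter; potency for activation of Gal4-LXR reporter so compounds are agonists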
T3 sequence (P55055 whole entry): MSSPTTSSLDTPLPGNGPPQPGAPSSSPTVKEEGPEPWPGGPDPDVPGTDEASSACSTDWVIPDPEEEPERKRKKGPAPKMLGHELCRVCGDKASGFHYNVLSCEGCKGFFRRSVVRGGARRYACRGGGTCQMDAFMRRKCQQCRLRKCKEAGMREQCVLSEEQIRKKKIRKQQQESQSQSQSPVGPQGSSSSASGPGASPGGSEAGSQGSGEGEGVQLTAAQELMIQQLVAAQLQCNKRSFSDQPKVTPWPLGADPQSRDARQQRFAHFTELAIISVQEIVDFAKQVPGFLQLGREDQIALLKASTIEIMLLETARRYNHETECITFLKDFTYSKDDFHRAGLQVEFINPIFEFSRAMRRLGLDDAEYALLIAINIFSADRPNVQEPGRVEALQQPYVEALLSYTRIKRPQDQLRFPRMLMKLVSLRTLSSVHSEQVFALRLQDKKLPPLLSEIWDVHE

[23] = test system: BJ; experiment: growth inhibition of engineered Ras-driven BJ cells – cell-based, alamar blue fluorescence, cherrypicked samples, dose response (AID 2631); format: functional; conditions: Homo sapiens;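 further: confirmatory dose-response assay in RAS-dependent BJ fibroblasts engineered with TERT, LT and ST, with cytotoxicity read by fluorescence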
[24] = blockers of bursicon-stimulated LGR2 cAMP reporter – cell-based, HEK293, CRE-luciferase reporter, cherry pick, set 2, dose response (AID 743343); format: functional;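 further: transfected cells were stimulated with diluted bursicon conditioned medium after compound addition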
[25] = viability loss in HEK293 cells – cell-based, plate reader, cherry-picked samples, cytotoxicity control, dose response (AID 743446); format: functional
[26] = test system: BJ; experiment: BJ-TERT fibroblast viability loss – cell-based, RAS-independent, luminescence, dose response (AID 1933); format: functional; conditions: Homo sapiens
[27] = target: Luciferin 4-monooxygenase (Photinus pyralis, UniProt P08659); experiment: inhibition of purified Photinus pyralis luciferase – biochemical, luminescence, dose response (AID 1891)
Luciferin 4-monooxygenase, sequence (P08659 whole entry): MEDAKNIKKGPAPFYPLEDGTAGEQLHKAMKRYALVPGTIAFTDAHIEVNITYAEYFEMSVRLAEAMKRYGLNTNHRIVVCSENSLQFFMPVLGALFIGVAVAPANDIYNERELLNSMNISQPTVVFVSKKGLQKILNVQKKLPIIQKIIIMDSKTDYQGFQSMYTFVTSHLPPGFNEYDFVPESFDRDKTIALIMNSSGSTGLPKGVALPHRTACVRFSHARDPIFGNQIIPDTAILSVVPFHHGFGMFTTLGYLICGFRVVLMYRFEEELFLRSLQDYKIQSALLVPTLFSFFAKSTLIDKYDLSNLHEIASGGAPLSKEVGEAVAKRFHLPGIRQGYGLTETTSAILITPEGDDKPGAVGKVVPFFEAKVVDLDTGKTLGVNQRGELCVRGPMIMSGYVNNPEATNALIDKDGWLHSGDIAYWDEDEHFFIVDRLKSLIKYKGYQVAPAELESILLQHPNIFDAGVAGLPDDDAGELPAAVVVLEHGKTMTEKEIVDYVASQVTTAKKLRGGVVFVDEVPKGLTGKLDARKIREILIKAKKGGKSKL

[28] = toxicity toward HepG2 liver cells – cell-based, plate reader, cherry-pick, antagonist series, cytotoxicity control, dose response (AID 743416); format: functional
[29] = Luminescence Cell-Based Dose Confirmation HTS to Identify Inhibitors of Platelet Dense Granule Release. [Related pubchem assays: 1663 (Primary HTS), 1678 (Summary of Project)]; format: functional
[30] = test system: INS1; experiment: INS-1E survival protection against cytokine death – cell-based, luminescence, retest, dose response (AID 449756); format: functional; conditions: Rattus norvegicus;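 further: cell death triggered by IL-1 beta plus TNF-alpha plus IFN-gamma mixture; protective hits raise ATP signal compared with cytokine alone wells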
[31] = A549 cell cytotoxicity, dose response, cytotoxicity control, plate reader, cherry-pick, antagonist series (AID 743412); format: functional, cell-based
[32] = test system: BJ; experiment: BJ-TERT-LT-ST fibroblast viability loss – cell-based, RAS-independent, luminescence, dose response (AID 1935); format: functional; conditions: Homo sapiens;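 further: BJ fibroblasts immortalized with TERT plus LT and ST oncogenes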
[33] = blockade of melanocortin 4 receptor signaling – cell-based, plate reader, cherry pick, counter-screen for LGR2 antagonist project, dose response (AID 743444); format: functional;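 further: transfected HEK 293 cells stimulated with alpha-MSH peptide; potency of inhibitors of the alpha-MSH evoked signal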
[34] = viability loss in HepG2 liver cells – cell-based, ATP luminescence, cherry-pick, set 6, cytotoxicity control, dose response (AID 1053125); format: functional

In the case of `CCCCCCCC1=CC2=CC(=O)C(C)(OC(C)=O)C(=O)C2=CN1CCc1ccccc1` (stereo not drawn), the AC50 [1] is reported as 6.31 µM (inconclusive) and the AC50 [2] is reported as 3.98 µM (inconclusive).

For `COc1ccc(NC(=O)COC(=O)c2cccc(S(=O)(=O)N(C)C)c2)cc1`, the EC50 [3] was > 79.4 µM (not active), the EC50 [4] was > 79.4 µM (not active) and the EC50 [5] was > 79.4 µM (not active).

In the case of `O=C(CSc1nnc2c3ccccc3c3ccccc3c2n1)Nc1ccccc1`, the EC50 [3] is reported as 28.6 µM (not active), the AC50 [6] is reported as 7.94 µM (inconclusive) and the EC50 [4] is reported as 39.1 µM (not active). For the same compound, the EC50 [5] was 31.7 µM (not active).

In the case of `C[C@H](CO)N1C[C@H](C)[C@@H](CN(C)S(=O)(=O)c2cccs2)OCCCC[C@H](C)Oc2ccc(NS(=O)(=O)c3ccc(Cl)cc3)cc2C1=O`, the AC50 [7] is reported as 3.86 µM (active), the AC50 [8] is reported as 66.4 µM (active) and the AC50 [9] is reported as 29.4 µM (active). The AC50 [10] was > 70 µM (inactive) and the AC50 [11] was 54.6 µM (active).

In the case of `CC(=O)c1sc(NC(=O)CCS(=O)(=O)c2ccccc2)nc1C`, the EC50 [12] is reported as > 91.1 µM (inactive), the EC50 [13] is reported as 0.691 µM (active) and the EC50 [14] is reported as > 91.1 µM (inactive). The EC50 [15] was > 150 µM (inactive), the EC50 [16] was > 180 µM (inactive) and the EC50 [17] was > 150 µM (inactive).

For `O=C(CC1SC(=O)N(c2ccccc2)C1=O)Nc1ccccc1` (stereo not drawn), the IC50 [18] was > 66 µM (inactive), the IC50 [19] was > 66 µM (inactive) and the IC50 [20] was 46.7 µM (inactive).

For `Clc1ccccc1Nc1nnc(-c2ccncc2)s1`, the EC50 [21] was 5.43 µM (active), the EC50 [22] was > 67.5 µM (inactive) and the EC50 [23] was > 133 µM (inactive). For the same compound, the AC50 [24] was 5.65 µM (active), the AC50 [25] was 4.19 µM (active) and the EC50 [26] was 7.07 µM (active). For the same compound, the EC50 [27] was 0.799 µM (active), the AC50 [28] was 8.92 µM (active) and the EC50 [29] was 2.56 µM (active). The AC50 [30] was 4.99 µM (active), the AC50 [31] was 4.79 µM (active) and the EC50 [32] was > 150 µM (inconclusive). For the same compound, the AC50 [33] was 8 µM (active).

For `CN(C)c1ccc2c(=O)c3ccccc3oc2n1`, the EC50 [22] was > 67.6 µM (inactive).

For `CCOc1ccc(-n2c(SCC(=O)Nc3nccs3)nnc2-c2ccoc2C)cc1`, the AC50 [34] was > 52 µM (inactive).
